Among the data in ChEMBL document CHEMBL4190168 (Medchemcomm, 2016) are solubility and IC50 values, retold here.

Some results are limits rather than exact numbers.

The nature of data set [1]: Solubility of the compound in water. It is filed as physicochemical.
For a further data set, the system named is EA.hy 926. Description: Antiproliferative activity against human EAhy926 cells after 48 hrs by MTT assay. It counts as functional, cell-based. The settings on record: EA.hy 926, 48 h.

For the compound `Cl.Clc1ccc(-c2nc(CNCCCCCNCc3cc4c5ccccc5n(Cc5ccccc5)c4c(-c4ccc(Cl)cc4)n3)cc3c4ccccc4n(Cc4ccccc4)c23)cc1`, the solubility in data set [1] was over 10000 µg/mL.
For `CCCCn1c2ccccc2c2cc(CNCCCCNCc3cc4c5ccccc5n(CCCC)c4c(C)n3)nc(C)c21`, in the data set with EA.hy 926, it took 1.69 µM to reach half-maximal inhibition (IC50).
As for `COc1ccc(-c2nc(CNCCCCCNCc3cc4c5ccccc5n(Cc5ccccc5)c4c(-c4ccc(OC)cc4)n3)cc3c4ccccc4n(Cc4ccccc4)c23)cc1.Cl`, in data set [1], the solubility is over 10000 µg/mL.
For `c1ccc(Cn2c3ccccc3c3cc(CNCCCNCc4cc5c6ccccc6n(Cc6ccccc6)c5c(-c5ccccc5)n4)nc(-c4ccccc4)c32)cc1`, the IC50 with EA.hy 926 was over 20 µM.
In data set [1], `Cc1nc(CNCCCNCc2cc3c4ccccc4n(CCCc4ccccc4)c3c(C)n2)cc2c3ccccc3n(CCCc3ccccc3)c12.Cl` came in with a solubility of over 10000 µg/mL.
In turn, `COc1ccc(-c2nc(CNCCCCCNCc3cc4c5ccccc5n(C)c4c(-c4ccc(OC)cc4)n3)cc3c4ccccc4n(C)c23)cc1.Cl` showed a solubility in data set [1] of over 10000 µg/mL.
Turning to `Cc1nc(CNCCCCNCc2cc3c4ccccc4n(Cc4ccccc4)c3c(C)n2)cc2c3ccccc3n(Cc3ccccc3)c12`, inhibition with EA.hy 926 was half-maximal at 3.18 µM (IC50).
On the same count and under the same terms, with `CC(C)c1nc(CNCCCNCc2cc3c4ccccc4n(Cc4ccccc4)c3c(C(C)C)n2)cc2c3ccccc3n(Cc3ccccc3)c12` the figure was 13.5 µM; with `CCCCn1c2ccccc2c2cc(C=O)nc(C)c21`, over 100 µM.
Consider `Cl.c1ccc(Cn2c3ccccc3c3cc(CNCCCNCc4cc5c6ccccc6n(Cc6ccccc6)c5c(-c5ccccc5)n4)nc(-c4ccccc4)c32)cc1`, for which the solubility in data set [1] was over 10000 µg/mL.
Take `CCCCn1c2ccccc2c2cc(CNCCCCNCc3cc4c5ccccc5n(CCCC)c4c(C)n3)nc(C)c21.Cl`: the solubility in data set [1] was over 10000 µg/mL.
Same read-out and setting: with `CCCCn1c2ccccc2c2cc(CNCCCCNCc3cc4c5ccccc5n(CCCC)c4c(C(C)C)n3)nc(C(C)C)c21.Cl` the figure was over 10000 µg/mL.
`Cc1nc(CNCCCNCc2cc3c4ccccc4n(CCCc4ccccc4)c3c(C)n2)cc2c3ccccc3n(CCCc3ccccc3)c12` registered an IC50 with EA.hy 926 of 9.87 µM.
As to `CCCCn1c2ccccc2c2cc(CNCCCNCc3cc4c5ccccc5n(CCCC)c4c(-c4ccc(Cl)cc4)n3)nc(-c3ccc(Cl)cc3)c21.Cl`, in data set [1], the solubility is over 10000 µg/mL.
In turn, `Cc1nc(CNCCCCNCc2cc3c4ccccc4n(CC(C)C)c3c(C)n2)cc2c3ccccc3n(CC(C)C)c12.Cl` came in with a solubility in data set [1] of over 10000 µg/mL.
`CCCCn1c2ccccc2c2cc(CNCCCCCNCc3cc4c5ccccc5n(CCCC)c4c(C(C)C)n3)nc(C(C)C)c21` displayed an IC50 in the data set on EA.hy 926 of 1.4 µM.
With `Cc1nc(CNCCCCNCc2cc3c4ccccc4n(C(C)C)c3c(C)n2)cc2c3ccccc3n(C(C)C)c12`, the IC50 in the data set with EA.hy 926 came out at 1.28 µM.
Take `Cc1nc(CNCCCCNCc2cc3c4ccccc4n(C)c3c(C)n2)cc2c3ccccc3n(C)c12.Cl`: in data set [1], the solubility is over 10000 µg/mL.
Compound `Cc1nc(C=O)cc2c3ccccc3n(CC(C)C)c12` yielded an IC50 in the data set with EA.hy 926 of over 100 µM.
In data set [1], `Cl.c1ccc(Cn2c3ccccc3c3cc(CNCCCCCCNCc4cc5c6ccccc6n(Cc6ccccc6)c5c(-c5ccccc5)n4)nc(-c4ccccc4)c32)cc1` gave a solubility of over 10000 µg/mL.
Compound `Cc1nc(CNCCCNCc2cc3c4ccccc4n(Cc4ccccc4)c3c(C)n2)cc2c3ccccc3n(Cc3ccccc3)c12.Cl` gave a solubility in data set [1] of over 10000 µg/mL.
Take `CC(C)c1nc(CNCCCCCCNCc2cc3c4ccccc4n(Cc4ccccc4)c3c(C(C)C)n2)cc2c3ccccc3n(Cc3ccccc3)c12.Cl`: the solubility in data set [1] is over 10000 µg/mL.
In data set [1], `Cl.Cn1c2ccccc2c2cc(CNCCCCCCNCc3cc4c5ccccc5n(C)c4c(-c4ccccc4)n3)nc(-c3ccccc3)c21` returned a solubility of over 10000 µg/mL.
In the data set with EA.hy 926, `CCn1c2ccccc2c2cc(C=O)nc(-c3cc(OC)c(OC)c(OC)c3)c21` registered an IC50 of over 100 µM.
Still for that read-out and setting: with `COc1ccc(/C=C\c2cc(OC)c(OC)c(OC)c2)cc1OP(=O)(O)O` [FOSBRETABULIN] the figure was 6.4 µM; with `CCCCn1c2ccccc2c2cc(C=O)nc(C(C)C)c21`, over 100 µM.
On to `CC(C)c1nc(CNCCCNCc2cc3c4ccccc4n(Cc4ccccc4)c3c(C(C)C)n2)cc2c3ccccc3n(Cc3ccccc3)c12.Cl`, for which, in data set [1], the solubility is over 10000 µg/mL.
In the data set on EA.hy 926, `Clc1ccc(-c2nc(CNCCCCCCNCc3cc4c5ccccc5n(Cc5ccccc5)c4c(-c4ccc(Cl)cc4)n3)cc3c4ccccc4n(Cc4ccccc4)c23)cc1` displayed an IC50 of 3.63 µM.
In turn, `Cn1c2ccccc2c2cc(CNCCCCNCc3cc4c5ccccc5n(C)c4c(-c4ccccc4)n3)nc(-c3ccccc3)c21` gave an IC50 in the data set with EA.hy 926 of 2.47 µM.
The same measure, in the same setting: with `Cc1nc(CNCCCNCc2cc3c4ccccc4n(CC(C)C)c3c(C)n2)cc2c3ccccc3n(CC(C)C)c12` the figure was 11.8 µM; with `Cn1c2ccccc2c2cc(CNCCCCCCNCc3cc4c5ccccc5n(C)c4c(-c4ccccc4)n3)nc(-c3ccccc3)c21`, 1.61 µM; with `CCCCn1c2ccccc2c2cc(CNCCCCNCc3cc4c5ccccc5n(CCCC)c4c(C(C)C)n3)nc(C(C)C)c21`, 2.38 µM.
`COc1cc(-c2nc(CNCCCCCCNCc3cc4c5ccccc5n(CCCc5ccccc5)c4c(-c4cc(OC)c(OC)c(OC)c4)n3)cc3c4ccccc4n(CCCc4ccccc4)c23)cc(OC)c1OC`: half-maximal inhibition in the data set on EA.hy 926 (IC50) was put at 1.69 µM.
In the data set on EA.hy 926, `COc1ccc(-c2nc(CNCCCCCNCc3cc4c5ccccc5n(Cc5ccccc5)c4c(-c4ccc(OC)cc4)n3)cc3c4ccccc4n(Cc4ccccc4)c23)cc1` had an IC50 of 3.88 µM.
The compound `CCCCn1c2ccccc2c2cc(CNCCCCNCc3cc4c5ccccc5n(CCCC)c4c(-c4ccc(Cl)cc4)n3)nc(-c3ccc(Cl)cc3)c21` registered an IC50 with EA.hy 926 of 4.85 µM.
Still for that read-out and setting: with `COc1cc(-c2nc(C=O)cc3c4ccccc4n(CCCc4ccccc4)c23)cc(OC)c1OC` the figure was over 100 µM.
Compound `CCn1c2ccccc2c2cc(CNCCCNCc3cc4c5ccccc5n(CC)c4c(-c4cc(OC)c(OC)c(OC)c4)n3)nc(-c3cc(OC)c(OC)c(OC)c3)c21.Cl` displayed a solubility in data set [1] of over 10000 µg/mL.
Consider `Cc1nc(CNCCCCNCc2cc3c4ccccc4n(CC(C)C)c3c(C)n2)cc2c3ccccc3n(CC(C)C)c12`, for which, in the data set with EA.hy 926, the half-inhibitory concentration (IC50) was 2.56 µM.
In data set [1], `Cc1nc(CNCCCCNCc2cc3c4ccccc4n(Cc4ccccc4)c3c(C)n2)cc2c3ccccc3n(Cc3ccccc3)c12.Cl` showed a solubility of over 10000 µg/mL.
In the data set on EA.hy 926, `CCCCCCn1c2ccccc2c2cc(CNCCCCCCNCc3cc4c5ccccc5n(CCCCCC)c4c(-c4ccc(OC)cc4)n3)nc(-c3ccc(OC)cc3)c21` had an IC50 of 4.25 µM.
Compound `CC(C)c1nc(CNCCCCCNCc2cc3c([nH]c4ccccc43)c(C(C)C)n2)cc2c1[nH]c1ccccc12` returned an IC50 in the data set on EA.hy 926 of over 20 µM.
For `COc1ccc(-c2nc(CNCCCCCCNCc3cc4c5ccccc5n(Cc5ccccc5)c4c(-c4ccc(OC)cc4)n3)cc3c4ccccc4n(Cc4ccccc4)c23)cc1`, in the data set with EA.hy 926, the IC50 is 4.4 µM.
In the case of `Cc1nc(CNCCCNCc2cc3c4ccccc4n(Cc4cccc(Cl)c4)c3c(C)n2)cc2c3ccccc3n(Cc3cccc(Cl)c3)c12.Cl`, in data set [1], the solubility is over 10000 µg/mL.
The same measure, in the same setting: with `COc1cc(-c2nc(CNCCCCCCNCc3cc4c5ccccc5n(CCCc5ccccc5)c4c(-c4cc(OC)c(OC)c(OC)c4)n3)cc3c4ccccc4n(CCCc4ccccc4)c23)cc(OC)c1OC.Cl` the figure was over 10000 µg/mL.
In the data set with EA.hy 926, `COc1ccc(-c2nc(CNCCCCCNCc3cc4c5ccccc5n(C)c4c(-c4ccc(OC)cc4)n3)cc3c4ccccc4n(C)c23)cc1` displayed an IC50 of 1.1 µM.
Still for that read-out and setting: with `Cc1nc(CNCCCCNCc2cc3c4ccccc4n(C)c3c(C)n2)cc2c3ccccc3n(C)c12` the figure was 2.76 µM; with `c1ccc(Cn2c3ccccc3c3cc(CNCCCCCCNCc4cc5c6ccccc6n(Cc6ccccc6)c5c(-c5ccccc5)n4)nc(-c4ccccc4)c32)cc1`, 8.09 µM; with `Cc1nc(CNCCCNCc2cc3c4ccccc4n(Cc4cccc(Cl)c4)c3c(C)n2)cc2c3ccccc3n(Cc3cccc(Cl)c3)c12`, 11.1 µM.
Turning to `CCCCn1c2ccccc2c2cc(CNCCCNCc3cc4c5ccccc5n(CCCC)c4c(-c4ccc(Cl)cc4)n3)nc(-c3ccc(Cl)cc3)c21`, in the data set on EA.hy 926, the IC50 was over 20 µM.
In turn, `CCCCCCn1c2ccccc2c2cc(C=O)nc(-c3ccc(OC)cc3)c21` showed a half-inhibitory concentration (IC50) in the data set on EA.hy 926 of over 100 µM.
Take `Cn1c2ccccc2c2cc(C=O)nc(-c3ccccc3)c21`: the IC50 in the data set on EA.hy 926 was over 100 µM.
In the case of `O=Cc1cc2c3ccccc3n(Cc3ccccc3)c2c(-c2ccc(Cl)cc2)n1`, in the data set on EA.hy 926, the IC50 is over 100 µM.
The same measure, in the same setting: with `CCCCn1c2ccccc2c2cc(C=O)nc(-c3ccc(Cl)cc3)c21` the figure was over 100 µM; with `CC(C)c1nc(CNCCCCCCNCc2cc3c4ccccc4n(Cc4ccccc4)c3c(C(C)C)n2)cc2c3ccccc3n(Cc3ccccc3)c12`, 2.03 µM; with `Clc1ccc(-c2nc(CNCCCCCNCc3cc4c5ccccc5n(Cc5ccccc5)c4c(-c4ccc(Cl)cc4)n3)cc3c4ccccc4n(Cc4ccccc4)c23)cc1`, 4.32 µM.
In turn, `Cc1nc(CNCCCCCCNCc2cc3c4ccccc4n(C)c3c(C)n2)cc2c3ccccc3n(C)c12` showed an IC50 in the data set on EA.hy 926 of 1.85 µM.
`Cc1nc(CNCCCNCc2cc3c4ccccc4n(Cc4ccccc4)c3c(C)n2)cc2c3ccccc3n(Cc3ccccc3)c12` gave an IC50 with EA.hy 926 of 15.3 µM.
Turning to `CC(C)c1nc(C=O)cc2c1[nH]c1ccccc12`, the IC50 in the data set with EA.hy 926 is over 100 µM.
Turning to `O=Cc1cc2c3ccccc3n(Cc3ccccc3)c2c(-c2ccccc2)n1`, the IC50 in the data set on EA.hy 926 was over 100 µM.
The same measure, in the same setting: with `COc1ccc(-c2nc(C=O)cc3c2[nH]c2ccccc23)cc1` the figure was over 100 µM.
In the data set on EA.hy 926, `Cc1nc(C=O)cc2c3ccccc3n(Cc3cccc(Cl)c3)c12` returned an IC50 of over 100 µM.
In the data set with EA.hy 926, `COc1ccc(-c2nc(C=O)cc3c4ccccc4n(C)c23)cc1` yielded an IC50 of over 100 µM.
Compound `COc1ccc(-c2nc(CNCCCCNCc3cc4c([nH]c5ccccc54)c(-c4ccc(OC)cc4)n3)cc3c2[nH]c2ccccc23)cc1` yielded an IC50 in the data set on EA.hy 926 of 10.3 µM.
The compound `Cc1nc(C=O)cc2c3ccccc3n(C(C)C)c12` had an IC50 in the data set on EA.hy 926 of over 100 µM.
As to `CC(C)c1nc(C=O)cc2c3ccccc3n(Cc3ccccc3)c12`, the IC50 in the data set on EA.hy 926 is over 100 µM.
On to `Cc1nc(C=O)cc2c3ccccc3n(Cc3ccccc3)c12`, for which the IC50 in the data set on EA.hy 926 is over 100 µM.
Compound `CCn1c2ccccc2c2cc(CNCCCNCc3cc4c5ccccc5n(CC)c4c(-c4cc(OC)c(OC)c(OC)c4)n3)nc(-c3cc(OC)c(OC)c(OC)c3)c21` displayed an IC50 in the data set on EA.hy 926 of 13.4 µM.
Still for that read-out and setting: with `COc1ccc(-c2nc(CNCCCCNCc3cc4c5ccccc5n(C)c4c(-c4ccc(OC)cc4)n3)cc3c4ccccc4n(C)c23)cc1` the figure was 2.94 µM.
Still for that read-out and setting: with `Cc1nc(C=O)cc2c3ccccc3n(CCCc3ccccc3)c12` the figure was over 100 µM.
In the data set on EA.hy 926, `COc1ccc(-c2nc(C=O)cc3c4ccccc4n(-c4ccccc4)c23)cc1` showed an IC50 of over 100 µM.
`Cc1nc(C=O)cc2c3ccccc3n(C)c12`: the IC50 in the data set on EA.hy 926 is over 100 µM.
